Laboratory results published in US7820623B2 (priority 2006, dated 2010).
Bridge positions count the residues as written; N and C are the ends. Square brackets hold non-standard residues; d marks the D form. Peptide text beside a SMILES is read from it. 1Nal = N[C@@H](Cc1cccc2ccccc12)C(=O)O

What was measured:
[1] = test system: thapsigargin-induced IFN-g production in human whole blood; assay type: cell-based; conditions: read-out: Analogue Activity (IC50) WB/IFNg
[2] = test system: thapsigargin-induced IL-2 production in human whole blood; conditions: read-out: Analogue Activity (IC50) WB/IL-2

SMILES | IC50 [1] [nM] | IC50 [2] [nM]
CC[C@H](C)[C@@H]1NC(=O)[C@H](CCCCN)NC(=O)[C@@H](NC(=O)[C@H](CCCCN)NC(=O)[C@@H](NC(=O)[C@H](CC(N)=O)NC(=O)[C@@H](NC(=O)[C@@H](NC(=O)[C@@H](NC(=O)CN)C(C)C)[C@@H](C)CC)[C@@H](C)CC)C(C)C)CSSC[C@@H]2NC(=O)[C@H](CCCCN)NC(=O)CNC(=O)[C@H](Cc3ccccc3)NC(=O)[C@H](CCCNC(=N)N)NC(=O)[C@H](CCSC)NC(=O)CNC(=O)[C@H](C)NC(=O)[C@H](CCCCN)NC(=O)[C@H](CCCCN)NC(=O)[C@@H]3CSSC[C@@H](C(=O)N[C@H](C(=O)N4CCC[C@H]4C(=O)N[C@@H](CCCCN)C(=O)O)[C@@H](C)O)NC(=O)[C@H](CCCNC(=N)N)NC(=O)[C@H](CSSC[C@H](NC(=O)[C@H](CCC(N)=O)NC(=O)[C@H](CCCNC(=N)N)NC(=O)[C@H](CO)NC1=O)C(=O)N[C@@H](CC(C)C)C(=O)N[C@@H](CCC(=O)O)C(=O)N1CCC[C@H]1C(=O)N3)NC(=O)[C@H](CCCCN)NC(=O)CNC(=O)[C@H](CC(N)=O)NC(=O)[C@H](CCSC)NC2=O [H34R] (H-GVIINVKCKISRQCLEPCKKAGMRFGKCMNGKCRCTPK-OH; disulfide 8-28, 14-33, 18-35) | 0.108 | 0.092
CC[C@H](C)[C@H](NC(=O)[C@H](C)NC(=O)[C@@H](NC(=O)CN)C(C)C)C(=O)N[C@@H](CC(N)=O)C(=O)N[C@H](C(=O)N[C@@H](CCCCN)C(=O)N[C@H]1CSSC[C@@H]2NC(=O)[C@H](CCCCN)NC(=O)CNC(=O)[C@H](Cc3ccccc3)NC(=O)[C@H](CCCNC(=N)N)NC(=O)[C@H](CCSC)NC(=O)CNC(=O)[C@H](C)NC(=O)[C@H](CCCCN)NC(=O)[C@H](CCCCN)NC(=O)[C@@H]3CSSC[C@@H](C(=O)N[C@H](C(=O)N4CCC[C@H]4C(=O)N[C@@H](CCCCN)C(=O)O)[C@@H](C)O)NC(=O)[C@H](Cc4c[nH]cn4)NC(=O)[C@H](CSSC[C@H](NC(=O)[C@H](CCC(N)=O)NC(=O)[C@H](CCCNC(=N)N)NC(=O)[C@H](CO)NC(=O)[C@H]([C@@H](C)CC)NC(=O)[C@H](CCCCN)NC1=O)C(=O)N[C@@H](CC(C)C)C(=O)N[C@@H](CCC(=O)O)C(=O)N1CCC[C@H]1C(=O)N3)NC(=O)[C@H](CCCCN)NC(=O)CNC(=O)[C@H](CC(N)=O)NC(=O)[C@H](CCSC)NC2=O)C(C)C [I3A] (H-GVAINVKCKISRQCLEPCKKAGMRFGKCMNGKCHCTPK-OH; disulfide 8-28, 14-33, 18-35) | 0.0992 | 0.0883
CC[C@H](C)[C@@H]1NC(=O)[C@H](CCCCN)NC(=O)[C@@H](NC(=O)[C@H](CCCCN)NC(=O)[C@@H](NC(=O)[C@H](CC(N)=O)NC(=O)[C@@H](NC(=O)[C@H](CCC(=O)O)NC(=O)[C@@H](NC(=O)CN)C(C)C)[C@@H](C)CC)C(C)C)CSSC[C@@H]2NC(=O)[C@H](CCCCN)NC(=O)CNC(=O)[C@H](Cc3ccccc3)NC(=O)[C@H](CCCNC(=N)N)NC(=O)[C@H](CCSC)NC(=O)CNC(=O)[C@H](C)NC(=O)[C@H](CCCCN)NC(=O)[C@H](CCCCN)NC(=O)[C@@H]3CSSC[C@@H](C(=O)N[C@H](C(=O)N4CCC[C@H]4C(=O)N[C@@H](CCCCN)C(=O)O)[C@@H](C)O)NC(=O)[C@H](Cc4c[nH]cn4)NC(=O)[C@H](CSSC[C@H](NC(=O)[C@H](CCC(N)=O)NC(=O)[C@H](CCCNC(=N)N)NC(=O)[C@H](CO)NC1=O)C(=O)N[C@@H](CC(C)C)C(=O)N[C@@H](CCC(=O)O)C(=O)N1CCC[C@H]1C(=O)N3)NC(=O)[C@H](CCCCN)NC(=O)CNC(=O)[C@H](CC(N)=O)NC(=O)[C@H](CCSC)NC2=O [I3E] (H-GVEINVKCKISRQCLEPCKKAGMRFGKCMNGKCHCTPK-OH; disulfide 8-28, 14-33, 18-35) | 0.16 | 0.12
CC[C@H](C)[C@@H]1NC(=O)[C@H](CCCCN)NC(=O)[C@@H](NC(=O)[C@H](CCCCN)NC(=O)[C@@H](NC(=O)[C@H](CC(N)=O)NC(=O)[C@@H](NC(=O)[C@H](Cc2cccc3ccccc23)NC(=O)[C@@H](NC(=O)CN)C(C)C)[C@@H](C)CC)C(C)C)CSSC[C@@H]2NC(=O)[C@H](CCCCN)NC(=O)CNC(=O)[C@H](Cc3ccccc3)NC(=O)[C@H](CCCNC(=N)N)NC(=O)[C@H](CCSC)NC(=O)CNC(=O)[C@H](C)NC(=O)[C@H](CCCCN)NC(=O)[C@H](CCCCN)NC(=O)[C@@H]3CSSC[C@@H](C(=O)N[C@H](C(=O)N4CCC[C@H]4C(=O)N[C@@H](CCCCN)C(=O)O)[C@@H](C)O)NC(=O)[C@H](Cc4c[nH]cn4)NC(=O)[C@H](CSSC[C@H](NC(=O)[C@H](CCC(N)=O)NC(=O)[C@H](CCCNC(=N)N)NC(=O)[C@H](CO)NC1=O)C(=O)N[C@@H](CC(C)C)C(=O)N[C@@H](CCC(=O)O)C(=O)N1CCC[C@H]1C(=O)N3)NC(=O)[C@H](CCCCN)NC(=O)CNC(=O)[C@H](CC(N)=O)NC(=O)[C@H](CCSC)NC2=O [I3Nal] (H-GV[1Nal]INVKCKISRQCLEPCKKAGMRFGKCMNGKCHCTPK-OH; disulfide 8-28, 14-33, 18-35) | 0.739 | 0.907
CC[C@H](C)[C@@H]1NC(=O)[C@H](CCCCN)NC(=O)[C@@H](NC(=O)[C@H](CCCCN)NC(=O)[C@@H](NC(=O)[C@H](CC(N)=O)NC(=O)[C@@H](NC(=O)[C@H](CCCNC(=N)N)NC(=O)[C@@H](NC(=O)CN)C(C)C)[C@@H](C)CC)C(C)C)CSSC[C@@H]2NC(=O)[C@H](CCCCN)NC(=O)CNC(=O)[C@H](Cc3ccccc3)NC(=O)[C@H](CCCNC(=N)N)NC(=O)[C@H](CCSC)NC(=O)CNC(=O)[C@H](C)NC(=O)[C@H](CCCCN)NC(=O)[C@H](CCCCN)NC(=O)[C@@H]3CSSC[C@@H](C(=O)N[C@H](C(=O)N4CCC[C@H]4C(=O)N[C@@H](CCCCN)C(=O)O)[C@@H](C)O)NC(=O)[C@H](Cc4c[nH]cn4)NC(=O)[C@H](CSSC[C@H](NC(=O)[C@H](CCC(N)=O)NC(=O)[C@H](CCCNC(=N)N)NC(=O)[C@H](CO)NC1=O)C(=O)N[C@@H](CC(C)C)C(=O)N[C@@H](CCC(=O)O)C(=O)N1CCC[C@H]1C(=O)N3)NC(=O)[C@H](CCCCN)NC(=O)CNC(=O)[C@H](CC(N)=O)NC(=O)[C@H](CCSC)NC2=O [I3R] (H-GVRINVKCKISRQCLEPCKKAGMRFGKCMNGKCHCTPK-OH; disulfide 8-28, 14-33, 18-35) | 0.18 | 0.148
CC[C@H](C)[C@@H]1NC(=O)[C@H](CCCCN)NC(=O)[C@@H](NC(=O)[C@H](CCCCN)NC(=O)[C@@H](NC(=O)[C@H](CC(N)=O)NC(=O)[C@H](C)NC(=O)[C@@H](NC(=O)[C@@H](NC(=O)CN)C(C)C)[C@@H](C)CC)C(C)C)CSSC[C@@H]2NC(=O)[C@H](CCCCN)NC(=O)CNC(=O)[C@H](Cc3ccccc3)NC(=O)[C@H](CCCNC(=N)N)NC(=O)[C@H](CCSC)NC(=O)CNC(=O)[C@H](C)NC(=O)[C@H](CCCCN)NC(=O)[C@H](CCCCN)NC(=O)[C@@H]3CSSC[C@@H](C(=O)N[C@H](C(=O)N4CCC[C@H]4C(=O)N[C@@H](CCCCN)C(=O)O)[C@@H](C)O)NC(=O)[C@H](Cc4c[nH]cn4)NC(=O)[C@H](CSSC[C@H](NC(=O)[C@H](CCC(N)=O)NC(=O)[C@H](CCCNC(=N)N)NC(=O)[C@H](CO)NC1=O)C(=O)N[C@@H](CC(C)C)C(=O)N[C@@H](CCC(=O)O)C(=O)N1CCC[C@H]1C(=O)N3)NC(=O)[C@H](CCCCN)NC(=O)CNC(=O)[C@H](CC(N)=O)NC(=O)[C@H](CCSC)NC2=O [I4A] (H-GVIANVKCKISRQCLEPCKKAGMRFGKCMNGKCHCTPK-OH; disulfide 8-28, 14-33, 18-35) | 0.0873 | 0.111
CC[C@H](C)[C@@H]1NC(=O)[C@H](CCCCN)NC(=O)[C@@H](NC(=O)[C@H](CCCCN)NC(=O)[C@@H](NC(=O)[C@H](CC(N)=O)NC(=O)[C@H](CCC(=O)O)NC(=O)[C@@H](NC(=O)[C@@H](NC(=O)CN)C(C)C)[C@@H](C)CC)C(C)C)CSSC[C@@H]2NC(=O)[C@H](CCCCN)NC(=O)CNC(=O)[C@H](Cc3ccccc3)NC(=O)[C@H](CCCNC(=N)N)NC(=O)[C@H](CCSC)NC(=O)CNC(=O)[C@H](C)NC(=O)[C@H](CCCCN)NC(=O)[C@H](CCCCN)NC(=O)[C@@H]3CSSC[C@@H](C(=O)N[C@H](C(=O)N4CCC[C@H]4C(=O)N[C@@H](CCCCN)C(=O)O)[C@@H](C)O)NC(=O)[C@H](Cc4c[nH]cn4)NC(=O)[C@H](CSSC[C@H](NC(=O)[C@H](CCC(N)=O)NC(=O)[C@H](CCCNC(=N)N)NC(=O)[C@H](CO)NC1=O)C(=O)N[C@@H](CC(C)C)C(=O)N[C@@H](CCC(=O)O)C(=O)N1CCC[C@H]1C(=O)N3)NC(=O)[C@H](CCCCN)NC(=O)CNC(=O)[C@H](CC(N)=O)NC(=O)[C@H](CCSC)NC2=O [I4E] (H-GVIENVKCKISRQCLEPCKKAGMRFGKCMNGKCHCTPK-OH; disulfide 8-28, 14-33, 18-35) | 0.191 | 0.218
CC[C@H](C)[C@@H]1NC(=O)[C@H](CCCCN)NC(=O)[C@@H](NC(=O)[C@H](CCCCN)NC(=O)[C@@H](NC(=O)[C@H](CC(N)=O)NC(=O)[C@H](Cc2cccc3ccccc23)NC(=O)[C@@H](NC(=O)[C@@H](NC(=O)CN)C(C)C)[C@@H](C)CC)C(C)C)CSSC[C@@H]2NC(=O)[C@H](CCCCN)NC(=O)CNC(=O)[C@H](Cc3ccccc3)NC(=O)[C@H](CCCNC(=N)N)NC(=O)[C@H](CCSC)NC(=O)CNC(=O)[C@H](C)NC(=O)[C@H](CCCCN)NC(=O)[C@H](CCCCN)NC(=O)[C@@H]3CSSC[C@@H](C(=O)N[C@H](C(=O)N4CCC[C@H]4C(=O)N[C@@H](CCCCN)C(=O)O)[C@@H](C)O)NC(=O)[C@H](Cc4c[nH]cn4)NC(=O)[C@H](CSSC[C@H](NC(=O)[C@H](CCC(N)=O)NC(=O)[C@H](CCCNC(=N)N)NC(=O)[C@H](CO)NC1=O)C(=O)N[C@@H](CC(C)C)C(=O)N[C@@H](CCC(=O)O)C(=O)N1CCC[C@H]1C(=O)N3)NC(=O)[C@H](CCCCN)NC(=O)CNC(=O)[C@H](CC(N)=O)NC(=O)[C@H](CCSC)NC2=O [I4Nal] (H-GVI[1Nal]NVKCKISRQCLEPCKKAGMRFGKCMNGKCHCTPK-OH; disulfide 8-28, 14-33, 18-35) | 1.01 | 1.09
